Reference: patent US20190142775A1, “TREATING ACTIVATED DERMAL CONDITIONS WITH AGENTS THAT TARGET ENERGY METABOLISM” (Sciaderm, Inc., priority 2016, published 2019)

Tests used:
[1] = system: psoriatic plaques; test: Open label case report: topical 3-BP formulation applied to psoriatic plaques of one subject; type: in vivo, human
Method: The present Example describes use of an exemplary topical formulation of 3-BP in the treatment of psoriasis. The goal of this study is to reduce the hyper-proliferation of skin cells and deactivate the inflammatory response associated with the condition. Therefore, treatment was planned in a sequential dose escalating fashion. Dose escalation is accomplished by a step wise increase in formulation strength and/or application volume and frequency. Daily or twice daily doses were administered, with an initial strength ranging from about 0.001% to about 0.05% and administered doses were increased incrementally to a final strength ranging from about 5% to about 25% of the total weight of the formulation. As a first objective, the maximum tolerated dose was established, which was indicated by the observation of local irritation in the area of application. In some cases, once local irritation was observed, dosing was then reduced by approximately factor of four and continued or readjusted as appropriate to assess efficacy.
An exemplary topical formulation of 3-BP was prepared as described below: […]
An exemplary 3-Bromo-Pyruvic Acid (“BPA”) formulation was compounded as a lotion of low viscosity, filled dropper bottles (e.g., a 3 mL dropper bottle).
Compounding: 3-Bromo-Pyruvic Acid, BPA, CAS#1113-59-3, was obtained from AK Scientific, Inc., Union City, Calif. and stored at frozen conditions. Given the known instability of BPA at higher pH (e.g., physiologic pH) the final formulation consisted of 75% acetic acid (5% w/w) and 25% compounding base with a pH of approximately 3.0. During formulation, all ingredients were chilled to +5° C., and kept on ice for the entire procedure.
Stock solution A was prepared by dissolving the appropriate amount of solid bromopyruvic acid, BPA, in 5% acetic acid at a concentration of 2% to 10% (w/w); depending on the desired final concentration, intermediate dilutions of for example 1:5, using 5% acetic acid, may have been prepared as well.
Stock solution B consisted of a commercially available compounding base, Vanicream™, NDC 45334-300-16, that was diluted 1:1 in 5% acetic acid. The final formulation was comprised of blending BPA solution (Stock A) with compounding base (Stock B) at a ratio of 1:1. The resulting formulation is of low viscosity and filled in 3 ml ophthalmic dropper bottles.
Final concentration of BPA was between 0.15 mM (0.0025% w/w) and 300 mM (5.0% w/w). To preserve stability of the active ingredient, the formulation was stored frozen at −18° C. until use. Once treatment application commenced, bottles were kept at refrigerated conditions (+5° C.) for up to 1 week and then replaced with freshly made product.
This research was conducted as an out-patient, open label, intra-individually controlled repeated measurement experiment involving up to 10 subjects. To minimize bias, subjects were treated at selected target plaques. Neighboring plaques serve as an intra-individual control.
An exemplary 3-BP formulation was self-administered as one or two drops per application, depending on size of the treatment area. Care was taken for drops to fall freely from the dropper tip to ensure a consistent dose volume of ≈25-50 μl/drop. Most treatment applications were done in the morning and photographs were taken mostly in the evening to allow possible moisturizing effects of the compounding base to wear off.
Within each treatment area, the severity is estimated by three clinical signs: erythema (redness), induration (thickness) and desquamation (scaling). Efficacy is assessed using the Investigators Global Assessment scale and the Psoriasis Area Severity Index (PASI), which are summarized in Tables 1 and 2 below. In addition, target lesions are photographed and adjudicated by a blinded independent investigator. These efficacy variables were assessed at every visit.
Safety is assessed by collection of research events and review of concomitant treatments. Clinical adverse event reporting is conducted at each visit. […]

[2] = at higher pH (e.g., physiologic pH); cited from earlier work
[3] = Plaque #3, right forearm, one drop per day, 1.75 mM, one week
[4] = Plaque #4, left forearm, 0.15 mM, QD, 2.5 weeks
[5] = Plaque #5, left elbow, 1 drop per day, 0.15 mM, 10 days

Structure (SMILES): O=C(O)C(=O)CBr [3-BP, 3-bromopyruvate]
- Adverse effects at a strength of 0.5 mM ([1]; 0.5 mM, summary of case report): without any observable adverse effects
- Efficacy at a strength of 0.5 mM ([1]; 0.5 mM, summary of case report): highly effective
- Plaque status 20 weeks after last treatment application ([1]; Plaque 1, left forearm, 26 weeks after baseline (FIG. 1)): complete remission
- Local adverse effects ([1]; Plaque 1, left forearm, BID, 0.1% to 5.0% (6-300 mM), after approximately one week of treatment): local irritation, oozing, and crusting
- Treatment effect on psoriatic plaque ([1]; Plaque 1, left forearm, one drop twice per day, strength escalated 0.1% to 5.0% (6-300 mM) in first week, later reduced to QD and 0.1%, stopped after 6 weeks): completely resolved
- Plaque status 20 weeks after last treatment application ([1]; Plaque #2, right forearm): complete remission
- Duration of complete remission after last treatment application ([1]; Plaque #2, right forearm, as of the date of the last visit): approximately 8 months
- Tolerability / local adverse effects ([1]; Plaque #2, right forearm, once daily 0.1% (6 mM) one week, then 0.03% (1.75 mM) two weeks): well tolerated and only some mild local irritation
- Treatment effect on psoriatic plaque ([1]; Plaque #2, right forearm, once daily 0.1% (6 mM) one week, then 0.03% (1.75 mM) two weeks, Day 21): mostly resolved
- Tolerability ([1]; Plaque #3, right forearm, 0.5 mM, once per day): well tolerated
- Treatment effect on severity of psoriasis plaques ([1]; Plaque #3, right forearm, 1 mM QD 10 days, then 0.5 mM once per day): Significant improvement
- Local adverse effects ([1]; Plaque #3, right forearm, 1 mM, QD, 10 days): minor local irritation
- Plaque status after treatment was stopped ([1]; Plaque #3, right forearm, after 1.75 mM QD and 6 mM every other day): psoriatic skin afflictions remained
- Local adverse effects [1, 3]: itching and pin-head sized crusting
- Treatment effect on psoriatic plaque [1, 3]: improved
- Local adverse effects ([1]; Plaque #3, right forearm, resumed at 6 mM every other day after one week pause): local irritation became more pronounced
- Tolerability [1, 4]: well tolerated
- Treatment effect on psoriatic plaque [1, 4]: only marginal efficacy
- Time plaque remained resolved after the last application ([1]; Plaque #4, left forearm, 0.5 mM): more than 6 weeks
- Local adverse effects ([1]; Plaque #4, left forearm, 0.5 mM, Day 18 to 43): did not induce any local irritancy or other unwanted effects
- Treatment effect on psoriatic plaque ([1]; Plaque #4, left forearm, 0.5 mM, Day 18 to 43, continued treatment): completely resolved
- Treatment effect on psoriatic plaque ([1]; Plaque #5, left elbow, 0.5 mM, 1 drop QD Days 10-19, 2 drops QD from Day 20, Day 47 (FIG. 4), versus untreated right elbow): completely clear of psoriasis
- Tolerability [1, 5]: well tolerated
- Treatment effect on psoriatic plaque [1, 5]: only marginal improvement
- Response of all treated plaques ([1]; five different or recurring psoriasis plaques, over a period of three to six weeks): responded favorably or completely resolved
- Concentration inducing local irritation / at which adverse events started to emerge ([1]; local irritation, including oozing and crusting, summary of case report): ≥ 1000 µM
- Outcome of local adverse effects after cessation of treatment ([1]; within a few weeks after treatment was stopped): resolved without sequelae
- Stability of BPA [2]: instability
